{
  "source": "patent US5942494A",
  "about": "“Stimulation of gene expression and synthesis of heat shock protein 72/73 (HSP 70)” (The Trustees of Columbia University in the City of New York, priority 1996, dated 1999)",
  "key": {"proteasomes": {"tested_on": "proteasomes", "conditions": "Rock, et al., 1994; cited from earlier work"}, "Hsp70": {"tested_on": "Hsp70", "test": "Pulse-chase turnover of radiolabeled Hsp70 in HepG2 cells", "assay_type": "cell-based, human", "procedure": "FIGS. 4A-4B: Effects of ALLN on Hsp70 turnover and synthesis rates in HepG2 cells. Confluent culture dishes were preincubated for 4 hours with serum-free MEM containing either 1.5% BSA alone (Control) or BSA plus 40 μg/ml of ALLN (ALLN). (A) The preincubated cells were radiolabeled with 3H-leucine (150 μCi/ml) in serum-free, leucine-free medium with/without ALLN for 20 min., washed 3 times with medium free of isotope and then chased in serum-free medium containing BSA with/without ALLN for up to 20 hours. At the indicated time points, cells were harvested and lysed. Samples were immediately stored in a -80° C. freezer. Immunoprecipitation of Hsp70 was performed as described in FIG. 1. Data at each time point were presented as means of cpm from duplicate dishes. (B) . […]\nFIGS. 8A-8C: Effects of ALLN on Hsp70 synthesis and turnover rates in HepG2 cells. […] Immunoprecipitates were analyzed on SDS-PAGE and fluorography (A) and also aliquoted for scintillation counting (B). […]\nHepG2 cells were preincubated for 4 hours in serum-free MEM and then radiolabeled with ^3 H-Leucine (150 μCi/ml) in a serum-free, leucine-free medium. […] Cell lysates containing equal amounts of trichloroacetic acid (TCA)-insoluble radioactivity were used for immunoprecipitations by incubating with individual monoclonal antibody (1 μg/ml) for 2.5 hours at 4° C. […]"}},
  "note": "Square brackets hold non-standard residues; d marks the D form. Peptide text beside a SMILES is read from it. Nle = CCCC[C@H](N)C(=O)O",
  "data": [
    {"smiles": "CCCC[C@@H](C=O)NC(=O)[C@H](CC(C)C)NC(=O)[C@H](CC(C)C)NC(C)=O", "note": "[ALLN, N-acetyl-leucyl-leucyl-norleucinal] (Ac-Leu-Leu-[Nle]-aldehyde)", "values": [
      {"measurement": "Inhibition of proteasomes", "setting": "proteasomes", "value": "potent inhibitors"},
      {"measurement": "Half life of newly synthesized Hsp70 in the presence of ALLN", "setting": "Hsp70; ALLN 40 μg/ml, pulse-chase, HepG2", "value": "about 6 hours"},
      {"measurement": "Increase in the half-life of Hsp70", "setting": "Hsp70; ALLN versus no ALLN", "value": "3-4 fold"}
    ]}
  ]
}
